Measured values from paper PMC12224672, “Advancing the development of TRIP13 inhibitors: A high-throughput screening approach” (SLAS discovery : advancing life sciences R & D, 2025).

Biological target: T1, TRIP13 (Homo sapiens, UniProt Q15645)
T1 construct: full length, 1-432 aa, N-GST-tagged
T1 sequence (Q15645 1-432): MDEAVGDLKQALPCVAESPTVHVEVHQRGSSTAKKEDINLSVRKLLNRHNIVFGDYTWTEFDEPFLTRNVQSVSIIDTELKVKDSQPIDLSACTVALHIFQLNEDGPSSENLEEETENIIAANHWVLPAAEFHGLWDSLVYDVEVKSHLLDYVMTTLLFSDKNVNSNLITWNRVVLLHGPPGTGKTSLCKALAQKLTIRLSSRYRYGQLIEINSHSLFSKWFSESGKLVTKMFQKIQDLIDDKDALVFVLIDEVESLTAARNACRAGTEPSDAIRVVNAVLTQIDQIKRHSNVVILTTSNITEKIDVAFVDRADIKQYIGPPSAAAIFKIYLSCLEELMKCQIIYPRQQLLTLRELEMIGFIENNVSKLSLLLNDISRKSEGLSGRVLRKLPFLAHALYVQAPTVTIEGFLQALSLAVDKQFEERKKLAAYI
Experiment: ADP-Glo ATPase dose-response ([…] TRIP13, […] ATP) with ADP counter-screen; also CETSA in HeLa cells
Type: biochemical

COc1cc2c(Oc3ccc4[nH]c(C)cc4c3F)ccnc2cc1OCC1(N)CC1 [anlotinib]
IC50: 5.5 ± 1 µM
